{
  "source": "patent US8865901B2",
  "about": "“Gain-of-function Bcl-2 inhibitors” (priority 2009, dated 2014)",
  "key": {"[1]": {"test_system": "Colo205 cells", "test": "Mouse colon carcinoma xenograft model", "assay_type": "in vivo, NOD/Les2 SCID/J mice", "conditions": "daily intraperitoneal administration, single agent; FIG. 4", "procedure": "The ability of the experimental compounds to inhibit tumor growth in a body was tested in a mouse colon carcinoma xenograft model.\n(§1) Six to nine-week old NOD/Les2 SCID/J mice were inoculated with 3×10^7 Colo205 cells by interscapular subcutaneous injection. Mice were maintained under specific pathogen-free conditions. Palpable tumor nodules were measured in two dimensions with calipers and tumor volumes calculated in mm3 as (length×width^2)/2. Blood samples were collected by retro-orbital bleed for human light chain measurements by ELISA using lambda-specific antibody (BD Biosciences). Animals were sacrificed by halothane inhalation, and histologic examination of the tumors and internal organs was performed. All experiments were approved by the FHCRC Institutional Animal Care and Use Committee.\nAnimals were treated by daily intraperitoneal administration of Compound 0511 (see structure above in Example 2).\nas §1, with “Animals were sacrificed by halothane inhalation, and histologic examination of the tumors and internal organs was performed. All experiments were approved by the FHCRC Institutional Animal Care and Use Committee.” left out"}, "[2]": {"test_system": "TAMH cells overexpressing Bcl-xL (TAMH-Bcl-xL, Tabx2s)", "test": "Cytotoxicity / apoptosis induction in TAMH cells overexpressing Bcl-xL", "assay_type": "cell-based", "conditions": "for Neo:Bcl: ratio Neo to Bcl-xL cells", "procedure": "(§2) To examine the sensitivity of cells over-expressing Bcl-xL to various mitochondrial inhibitors and apoptosis inducers, cell lines over-expressing Bcl-xL were prepared and tested according to Hockenberry et al. U.S. Pat. No. 7,241,804, hereby incorporated by reference in its entirety. Competitive binding of compounds with fluorescent antimycin A3, and competitive binding of compounds with BH3 peptide and Bcl-2. Competitive binding of compounds with BH-3 peptide were also measured using Bcl-xL as previously described. Id.\n(§3) Cell lines were grown in RPMI 1640 medium (Gibco, Grand Island, N.Y.) supplemented with 5% fetal bovine serum (Hyclone, Logan, Utah). Also shown is the ratio of TAMH cells expressing Bcl-xL to those expressing A142L (WT:142L). The assay measures the potency of various compounds with respect to inducing apoptosis in these cells.\n(§4) The compounds described in Example 2 were tested for their ability to inhibit Bcl-2 gain-of-function in TAMH cells, TAMH cells overexpressing […] (TAMH-Bcl-xL), TAMH cells transfected with Neo vector (Neo), TAMH cells over expressing a variant of Bcl-xL (A142L) using the methods of Example 1. 3-6.\n(§5) The effects of the compounds described in Example 8 on TAMH cells, TAMH cells overexpressing Bcl-xL (TAMH-Bcl-xL), TAMH cells transfected with Neo vector (Neo), TAMH cells over expressing a variant of Bcl-xL (A142L) is shown in Table 8\n(§6) The effects of the compounds described in Example 10 on TAMH cells, TAMH cells overexpressing Bcl-xL (TAMH-Bcl-xL), TAMH cells transfected with Neo vector (Neo), TAMH cells over expressing a variant of Bcl-xL (A142L) is shown in the following Table 10"}, "[3]": {"test_system": "H23, NSCLC tumor", "test": "Apoptosis induction against solid tumors in vitro, H23", "assay_type": "cell-based", "procedure": "(§7) The ability of compounds from Example 2 to induce apoptosis against solid tumors in vitro was tested. Four solid tumors were tested: OVCAR-3, an ovarian tumor; COLO205, a colonic tumor; HOP-62 and H23, both NSCLC tumors. The experimental compounds were compared to 2MeAA and to ABT-737, a clinical stage compound owned by Abbott Pharma.\n(§8) The ability of compounds of Example 8 to induce apoptosis against solid tumors in vitro was tested. Four solid tumors were tested: OVCAR-3, an ovarian tumor; COLO205, a colonic tumor; HOP-62 and H23, both NSCLC tumors. The experimental compounds, […]"}, "[4]": {"test_system": "COLO205, a colonic tumor", "test": "Apoptosis induction against solid tumors in vitro, COLO205", "assay_type": "cell-based", "procedure": "as §7, §8"}, "[5]": {"test_system": "OVCAR-3, an ovarian tumor", "test": "Apoptosis induction against solid tumors in vitro, OVCAR-3", "assay_type": "cell-based", "procedure": "as §7, §8"}, "[6]": {"test_system": "HOP-62, NSCLC tumor", "test": "Apoptosis induction against solid tumors in vitro, HOP-62", "assay_type": "cell-based", "procedure": "as §7, §8"}, "[7]": {"test_system": "TAMH cells over expressing a variant of Bcl-xL (A142L)", "test": "Cytotoxicity / apoptosis induction in TAMH cells over expressing Bcl-xL variant A142L", "assay_type": "cell-based", "conditions": "Table 4; for EC50: TAMH A142L cells; for WT:142L: ratio of TAMH cells expressing Bcl-xL to those expressing A142L", "procedure": "as §2, §3, §4"}, "[8]": {"test_system": "TAMH cells transfected with Neo vector (Neo)", "test": "Cytotoxicity / apoptosis induction in TAMH cells transfected with Neo vector", "assay_type": "cell-based", "conditions": "TAMH Neo cells", "procedure": "as §2, §3, §4, §5, §6"}, "[9]": {"test_system": "CFPAC-1, HPAF-II MIA PaCa, PaTu-1, PaTu-8988t, ASPC-1, FA-6, and PANC-1 cell lines", "test": "EC50 in a panel of pancreatic cell lines", "assay_type": "cell-based", "conditions": "Homo sapiens; every pancreatic cell line of the panel, but for HPAF-II; FIG. 1", "procedure": "The EC50 for the Compound 0216 (see structure above) was determined in a panel of pancreatic cell lines.\n(§9) The panel included CFPAC-1, HPAF-II MIA PaCa, PaTu-1, PaTu-8988t, ASPC-1, FA-6, and PANC-1 cell lines. Pancreatic cancer samples were obtained from patients, with appropriate patient consent and approval of the Fred Hutchinson Cancer Research Center Institutional Review Board. Primary cells were maintained in Iscove's medium supplemented with 10% bovine calf serum, 100 ng·ml^−1 stem cell factor, and 50 ng·ml^−1 interleukin-3.\nThe EC50 values were measured with compound 216. […] This means that this molecule has a broad ability to induce apoptosis in a wide variety of pancreatic cancers.\nas §9, with “institutional approval.” for “approval of the Fred Hutchinson Cancer Research Center Institutional Review Board.”\nThe EC50 values were measured with compound FH279."}, "[10]": {"conditions": "Table 4, TAMH-Bcl-xL cells, read-out: Bcl-xL"}},
  "note": "Where two headings read alike, the source gives them in different places.",
  "data": [
    {"compound": "O=C1c2ccccc2C(=O)c2c1n[n+]([O-])n2CCCN1CCN(c2ccccn2)CC1", "note": "[Compound 0511]", "values": [
      {"measurement": "tumor growth", "setting": "[1]", "value": "effective in inhibiting tumor growth"}
    ]},
    {"compound": "Oc1c(Cl)cc(Cl)cc1/C=N/Nc1ccc(C(F)(F)F)cn1", "note": "[Compound 0235]", "values": [
      {"measurement": "EC50", "setting": "[2]; [10]", "value": 3.9, "unit": "µM"},
      {"measurement": "Neo:Bcl", "setting": "[2]; Table 4", "value": 2.8},
      {"measurement": "EC50", "setting": "[3]; Table 7", "value": 3.7, "unit": "µM"},
      {"measurement": "EC50", "setting": "[4]; Table 7", "value": 6.7, "unit": "µM"},
      {"measurement": "EC50", "setting": "[5]; Table 7", "value": 2.7, "unit": "µM"},
      {"measurement": "EC50", "setting": "[6]; Table 7", "value": 8.3, "unit": "µM"},
      {"measurement": "EC50", "setting": "[7]", "value": 8.5, "unit": "µM"},
      {"measurement": "WT:142L", "setting": "[7]", "value": 2.2},
      {"measurement": "EC50", "setting": "[8]; Table 4, read-out: Neo", "value": 11, "unit": "µM"}
    ]},
    {"compound": "O=[N+]([O-])c1ccc(SCc2ccccc2)c2nonc12", "note": "[Compound 0216]", "values": [
      {"measurement": "EC50", "setting": "[2]; Mus musculus, Table 6, TAMH cells overexpressing Bcl-xL (Tabx2s), read-out: 2S EC50", "value": 1.2, "unit": "µM"},
      {"measurement": "sensitivity to the apoptosis-inducing effects", "setting": "[2]; TAMH cells overexpressing Bcl-xL compared to TAMH neo cells, FIG. 2", "value": "more sensitive"},
      {"measurement": "EC50", "setting": "[9]", "value": "< 10", "unit": "µM"},
      {"measurement": "EC50", "setting": "[8]; Mus musculus, Table 6, read-out: Neo EC50", "value": 3.7, "unit": "µM"}
    ]},
    {"compound": "Oc1c(Br)cc(Cl)cc1/C=N/Nc1ccc(C(F)(F)F)cn1", "note": "[Compound 0239]", "values": [
      {"measurement": "EC50", "setting": "[2]; [10]", "value": 4.3, "unit": "µM"},
      {"measurement": "Neo:Bcl", "setting": "[2]; Table 4", "value": 4},
      {"measurement": "EC50", "setting": "[3]; Table 7", "value": 5.6, "unit": "µM"},
      {"measurement": "EC50", "setting": "[4]; Table 7", "value": "> 25", "unit": "µM"},
      {"measurement": "EC50", "setting": "[5]; Table 7", "value": 4.2, "unit": "µM"},
      {"measurement": "EC50", "setting": "[6]; Table 7", "value": 19.1, "unit": "µM"},
      {"measurement": "EC50", "setting": "[7]", "value": 13.3, "unit": "µM"},
      {"measurement": "WT:142L", "setting": "[7]", "value": 3.1},
      {"measurement": "EC50", "setting": "[8]; Table 4, read-out: Neo", "value": 17.2, "unit": "µM"}
    ]},
    {"compound": "O=[N+]([O-])c1cccc(/C=N/Nc2ccccn2)c1O", "note": "[Compound 0208]", "values": [
      {"measurement": "EC50", "setting": "[2]; [10]", "value": 4.4, "unit": "µM"},
      {"measurement": "Neo:Bcl", "setting": "[2]; Table 4", "value": 5.7},
      {"measurement": "EC50", "setting": "[3]; Table 7", "value": 8.2, "unit": "µM"},
      {"measurement": "EC50", "setting": "[4]; Table 7", "value": 9.2, "unit": "µM"},
      {"measurement": "EC50", "setting": "[5]; Table 7", "value": 3.8, "unit": "µM"},
      {"measurement": "EC50", "setting": "[6]; Table 7", "value": 17.5, "unit": "µM"},
      {"measurement": "EC50", "setting": "[7]", "value": 9.7, "unit": "µM"},
      {"measurement": "WT:142L", "setting": "[7]", "value": 2.2},
      {"measurement": "EC50", "setting": "[8]; Table 4, read-out: Neo", "value": "> 25", "unit": "µM"}
    ]},
    {"compound": "2-methoxy antimycin A [Compound 2-MeAA, reference compound]", "values": [
      {"measurement": "EC50", "setting": "[2]; [10]", "value": 2.5, "unit": "µM"},
      {"measurement": "Neo:Bcl", "setting": "[2]; Table 4", "value": 6.9},
      {"measurement": "EC50", "setting": "[3]; Table 7", "value": 2.7, "unit": "µM"},
      {"measurement": "EC50", "setting": "[3]; Table 21", "value": 2.7, "unit": "µM"},
      {"measurement": "EC50", "setting": "[4]; Table 7", "value": 1.8, "unit": "µM"},
      {"measurement": "EC50", "setting": "[4]; Table 21", "value": 1.8, "unit": "µM"},
      {"measurement": "EC50", "setting": "[5]; Table 7", "value": 3.5, "unit": "µM"},
      {"measurement": "EC50", "setting": "[5]; Table 21", "value": 3.5, "unit": "µM"},
      {"measurement": "EC50", "setting": "[6]; Table 7", "value": 3.9, "unit": "µM"},
      {"measurement": "EC50", "setting": "[6]; Table 21", "value": 3.9, "unit": "µM"},
      {"measurement": "EC50", "setting": "[7]", "value": 10.3, "unit": "µM"},
      {"measurement": "WT:142L", "setting": "[7]", "value": 4.1},
      {"measurement": "EC50", "setting": "[8]; Table 4, read-out: Neo", "value": 15.6, "unit": "µM"}
    ]},
    {"compound": "O=[N+]([O-])c1cccc(/C=N/Nc2ccc3ccccc3n2)c1O", "note": "[FH297]", "values": [
      {"measurement": "EC50", "setting": "[3]; Homo sapiens, NCI-H23, Table 21", "value": 2.8, "unit": "µM"},
      {"measurement": "EC50", "setting": "[4]; Homo sapiens, COLO 205, Table 21", "value": 1, "unit": "µM"},
      {"measurement": "EC50", "setting": "[5]; Homo sapiens, Table 21", "value": 1.5, "unit": "µM"},
      {"measurement": "EC50", "setting": "[6]; Homo sapiens, Table 21", "value": 2.7, "unit": "µM"}
    ]}
  ]
}
